pIC50: −log10 of the molar value.

The source of these data is ChEMBL document CHEMBL1949658, “3D-QSAR and 3D-QSSR models of negative allosteric modulators facilitate the design of a novel selective antagonist of human α4β2 neuronal nicotinic acetylcholine receptors” (Bioorg Med Chem Lett, 2012).

Experiment [1] has as its target Neuronal acetylcholine receptor; alpha4/beta2 (Homo sapiens, UniProt P17787+P43681). Nature of the experiment: Antagonist activity at human nAChR alpha4/beta2 receptor expressed in HEK ts201 cells assessed as calcium accumulation by fluorescence analysis. In kind it is functional, cell-based. Conditions: for IC50: read-out: pIC50 (converted); for pIC50: read-out: IC50.

For experiment [2], the target named is Neuronal acetylcholine receptor; alpha3/beta4 (Homo sapiens, UniProt P30926+P32297). Nature of the experiment: Antagonist activity at human nAChR alpha3/beta4 receptor expressed in HEK ts201 cells assessed as calcium accumulation by fluorescence analysis. To be noted: for IC50: read-out: pIC50 (converted); for pIC50: read-out: IC50. In kind it is functional, cell-based.

The species named for another experiment is Homo sapiens. Nature of the experiment: Selectivity ratio of pIC50 for human nAChR alpha3/beta4 receptor to pIC50 for human nAChR alpha4/beta2 receptor.

Neuronal acetylcholine receptor; alpha3/beta4, sequence (P30926 whole entry): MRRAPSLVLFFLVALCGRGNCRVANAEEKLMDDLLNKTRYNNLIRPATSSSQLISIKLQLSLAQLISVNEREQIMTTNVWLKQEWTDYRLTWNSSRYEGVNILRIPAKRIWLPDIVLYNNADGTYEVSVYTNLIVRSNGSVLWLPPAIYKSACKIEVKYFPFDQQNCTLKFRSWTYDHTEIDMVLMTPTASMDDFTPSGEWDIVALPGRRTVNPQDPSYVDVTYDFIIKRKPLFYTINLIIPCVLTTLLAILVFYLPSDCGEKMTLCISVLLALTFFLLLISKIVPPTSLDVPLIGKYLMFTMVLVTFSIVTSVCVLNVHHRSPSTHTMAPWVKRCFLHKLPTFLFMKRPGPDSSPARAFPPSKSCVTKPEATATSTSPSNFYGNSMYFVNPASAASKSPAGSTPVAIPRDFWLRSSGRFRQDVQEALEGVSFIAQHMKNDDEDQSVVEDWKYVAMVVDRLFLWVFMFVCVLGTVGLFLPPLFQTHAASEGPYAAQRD
Neuronal acetylcholine receptor; alpha3/beta4, sequence (P32297 whole entry): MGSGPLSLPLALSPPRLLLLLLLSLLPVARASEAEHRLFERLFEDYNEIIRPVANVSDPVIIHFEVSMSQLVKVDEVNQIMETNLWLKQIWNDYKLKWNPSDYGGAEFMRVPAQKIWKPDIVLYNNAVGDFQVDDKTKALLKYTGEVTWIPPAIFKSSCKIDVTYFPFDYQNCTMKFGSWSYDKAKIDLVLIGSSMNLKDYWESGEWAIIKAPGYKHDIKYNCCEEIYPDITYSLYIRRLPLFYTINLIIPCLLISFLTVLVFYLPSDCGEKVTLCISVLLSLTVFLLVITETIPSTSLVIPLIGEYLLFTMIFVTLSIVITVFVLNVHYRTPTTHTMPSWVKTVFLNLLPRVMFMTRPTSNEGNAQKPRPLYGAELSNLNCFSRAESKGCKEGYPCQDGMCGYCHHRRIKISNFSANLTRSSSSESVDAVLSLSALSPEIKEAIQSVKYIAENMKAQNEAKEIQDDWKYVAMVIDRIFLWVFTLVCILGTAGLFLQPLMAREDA
Neuronal acetylcholine receptor; alpha4/beta2, sequence (P17787 whole entry): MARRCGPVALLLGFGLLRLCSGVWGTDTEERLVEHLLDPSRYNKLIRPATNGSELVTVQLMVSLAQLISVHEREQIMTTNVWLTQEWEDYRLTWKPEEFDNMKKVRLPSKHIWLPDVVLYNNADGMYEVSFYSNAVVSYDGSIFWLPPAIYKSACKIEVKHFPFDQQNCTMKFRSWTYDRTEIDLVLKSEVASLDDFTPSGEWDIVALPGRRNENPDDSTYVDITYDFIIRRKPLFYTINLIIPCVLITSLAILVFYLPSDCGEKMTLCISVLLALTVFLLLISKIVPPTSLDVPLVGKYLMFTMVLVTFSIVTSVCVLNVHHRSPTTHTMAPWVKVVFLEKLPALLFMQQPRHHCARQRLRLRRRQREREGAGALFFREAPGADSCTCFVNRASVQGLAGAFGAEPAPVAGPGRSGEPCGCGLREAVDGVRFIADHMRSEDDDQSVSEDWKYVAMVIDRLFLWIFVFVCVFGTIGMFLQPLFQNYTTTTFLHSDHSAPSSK
Neuronal acetylcholine receptor; alpha4/beta2, sequence (P43681 whole entry): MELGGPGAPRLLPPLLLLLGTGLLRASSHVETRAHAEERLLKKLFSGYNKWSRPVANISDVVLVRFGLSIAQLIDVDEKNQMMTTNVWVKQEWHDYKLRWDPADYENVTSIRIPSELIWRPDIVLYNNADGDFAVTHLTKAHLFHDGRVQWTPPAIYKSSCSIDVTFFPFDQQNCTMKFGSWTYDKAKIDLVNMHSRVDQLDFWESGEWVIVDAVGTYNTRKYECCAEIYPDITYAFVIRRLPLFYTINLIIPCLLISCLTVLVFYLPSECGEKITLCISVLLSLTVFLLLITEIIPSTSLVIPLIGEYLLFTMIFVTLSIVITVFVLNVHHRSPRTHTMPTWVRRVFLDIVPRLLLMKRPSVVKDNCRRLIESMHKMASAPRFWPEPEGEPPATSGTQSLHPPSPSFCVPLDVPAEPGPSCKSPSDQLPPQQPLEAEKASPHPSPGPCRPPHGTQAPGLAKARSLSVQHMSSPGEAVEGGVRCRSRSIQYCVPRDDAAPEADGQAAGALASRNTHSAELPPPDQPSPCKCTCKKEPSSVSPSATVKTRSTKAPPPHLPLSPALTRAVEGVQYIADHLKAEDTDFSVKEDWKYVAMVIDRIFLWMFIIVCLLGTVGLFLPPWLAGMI

With `COc1ccccc1C(=O)OCC1CCCN(CCCc2ccccc2)C1` (single isomer, unassigned), the IC50 is 7.94 µM in experiment [1] and 12 µM in experiment [2]. In addition, in the experiment listed under Homo sapiens, the Ratio pIC50 stood at 0.19.
For `COc1ccc(OCCCCCN2CCCC(COC(=O)c3coc4ccccc4c3=O)C2)cc1` (configuration not stated), the IC50 in experiment [1] was 10 µM.
As a reminder, the pIC50 is −log10 of the IC50, conventionally taken in molar units. In the case of `O=C(OCC1CCCN(C(=O)CCc2ccccc2)C1)c1ccccc1-c1ccccc1` (configuration not stated), in experiment [1], the pIC50 was 5.25 and the IC50 was 6.03 µM. In experiment [2], the pIC50 was less than 4.00 and the IC50 is 331 µM. For the same molecule, the Ratio pIC50 in the experiment listed under Homo sapiens stood at 1.74.
In the case of `c1ccc(CCCN2CCCC(COCc3ccccc3-c3ccccc3)C2)cc1` (configuration not stated), the results for the IC50 in experiment [1] and in experiment [2] were 12.6 µM and 15.5 µM, respectively. For the same molecule, the Ratio pIC50 in the experiment filed under Homo sapiens worked out at 0.09.
For `C[N+]1(C)CCCC(COC(=O)c2ccccc2-c2ccccc2)C1` (single isomer, unassigned), the results for the IC50 in experiment [1] and in experiment [2] were 2.4 µM and 6.46 µM, respectively. The Ratio pIC50 in the experiment filed under Homo sapiens was 0.43.
With `CC1CC(=O)N(c2ccccc2C(=O)OCC2CCCN(CCc3c[nH]c4ccccc34)C2)C1=O` (configuration not stated), the IC50 in experiment [1] was 5.62 µM; in experiment [2] it was 74.1 µM. In addition, the Ratio pIC50 in the experiment listed under Homo sapiens was 1.12.
As to `CC1CC(=O)N(c2ccccc2C(=O)OCC2CCCN(CCOc3cccc4ccccc34)C2)C1=O` (configuration not stated), the IC50 in experiment [1] was 3.89 µM; in experiment [2], 15.8 µM. The Ratio pIC50 in the experiment listed under Homo sapiens is 0.61.
Consider `COc1ccc(OCCN2CCCC(COC(=O)c3ccccc3N3C(=O)CC(C)C3=O)C2)cc1` (configuration not stated), for which the IC50 was 66.1 µM in experiment [1] and 12 µM in experiment [2]. Further, the Ratio pIC50 in the experiment listed under Homo sapiens is -0.75.
Taken in the same sequence, the figures for `CC1CC(=O)N(c2ccccc2C(=O)OCC2CCCN(CCCCCOc3ccc(Cl)c(Cl)c3)C2)C1=O` (configuration not stated) were 17.4 µM, 9.12 µM and -0.28.
Turning to `CC1CC(=O)N(c2ccccc2C(=O)OCC2CCCN(CCCCOc3ccccc3)C2)C1=O` (configuration not stated), the IC50 in experiment [1] is 1.7 µM.
Take `CC1CC(=O)N(c2ccccc2C(=O)OCC2CCCN(CCCCCOc3ccccc3)C2)C1=O` (configuration not stated): in experiment [1], the IC50 was 17 µM.
As to `CC(C)N1CC(OC(=O)c2ccccc2-c2ccccc2)C2CC1C1OC(C)(C)OC21` (configuration not stated), in experiment [1], the IC50 was 9.55 µM.
On to `COc1ccc(OCCCCCN2CCCC(COC(=O)c3ccccc3N3C(=O)CC(C)C3=O)C2)cc1` (configuration not stated), for which the IC50 in experiment [1] was 14.5 µM.
With `COc1cccc(OCCCCCN2CCCC(COC(=O)c3ccccc3N3C(=O)CC(C)C3=O)C2)c1OC` (configuration not stated), the IC50 in experiment [1] is 8.71 µM.
Turning to `O=C(NCC1CCCN(CCCc2ccccc2)C1)c1ccccc1-c1ccccc1` (single isomer, unassigned), the IC50 in experiment [1] is 20 µM. In addition, the Ratio pIC50 in the experiment filed under Homo sapiens came to 3.7.
Turning to `O=C(OC1CCCN(CCCc2ccccc2)C1)c1ccccc1-c1ccccc1` (single isomer, unassigned), the pIC50 in experiment [1] is 5.19; in experiment [2], 5.57.
In the case of `CC1CC(=O)N(c2ccccc2C(=O)OCC2CCCN(CCCCCCc3ccccc3)C2)C1=O` (configuration not stated), the IC50 in experiment [1] was 29.5 µM.
Still for that read-out and setting: under `CC(C)N1CCCC(COC(=O)c2ccccc2N2C(=O)CC(Cc3ccccc3)C2=O)C1` (configuration not stated) stands 8.91 µM.
Consider `CC1CC(=O)N(c2ccccc2C(=O)OC2CN(CCCc3ccccc3)C3CC2C2OC(C)(C)OC23)C1=O` (configuration not stated), for which the IC50 in experiment [2] is 30.9 µM.
In the case of `O=C(OCC1CCCN(CCCc2ccccc2)C1)c1ccccc1-c1cccc2ccccc12` (configuration not stated), the Ratio pIC50 in the experiment listed under Homo sapiens was found to be 0.73.
Consider `CC1CC(=O)N(c2ccccc2C(=O)OC[C@@H]2C[C@H](c3ccccc3)CN(CCCc3ccccc3)C2)C1=O` (some centres not stated), for which, in experiment [1], the IC50 was 5.37 µM.
`CC1CC(=O)N(c2ccccc2C(=O)CCC2CCCN(CCCCOc3ccc(C(F)(F)F)cc3)C2)C1=O` (configuration not stated): the IC50 in experiment [1] is 7.08 µM.
Consider `COc1ccc(OCCCCCN2CCCC(COC(=O)c3ccccc3-c3ccccc3)C2)cc1` (configuration not stated), for which the IC50 in experiment [1] is 14.5 µM; in experiment [2], 22.4 µM.
With `COc1ccc(OCCCCCN2CCCC(COC(=O)c3cc(=O)c4ccccc4o3)C2)cc1` (configuration not stated), the IC50 in experiment [1] is 10.2 µM.
In the case of `CC1CC(=O)N(c2ccccc2C(=O)OC2CN(C(C)C)C3CC2C2OC(C)(C)OC23)C1=O` (configuration not stated), the IC50 in experiment [1] was 7.59 µM.
Turning to `c1ccc(-c2ccccc2COCC2CCCNC2)cc1` (configuration not stated), the IC50 in experiment [1] is 4.17 µM.
